# Data as given in paper PMC11943355, “Identification of a Novel Antagonist of BRS-3 from Natural Products and Its Protective Effects Against H2O2-Induced Cardiomyocyte Injury” (International Journal of Molecular Sciences, 2025).
# Key:
# Type in all cases: cell-based
# [1] = target: T1, BRS-3 (bombesin receptor subtype-3, BB3), human (Homo sapiens, UniProt P32247); test: inhibition of […] MK-5046-induced IP1 accumulation (HTRF) in H1299-hBRS-3 stable cells
# T1 construct: gene BRS3
# T1 sequence (P32247 1-399): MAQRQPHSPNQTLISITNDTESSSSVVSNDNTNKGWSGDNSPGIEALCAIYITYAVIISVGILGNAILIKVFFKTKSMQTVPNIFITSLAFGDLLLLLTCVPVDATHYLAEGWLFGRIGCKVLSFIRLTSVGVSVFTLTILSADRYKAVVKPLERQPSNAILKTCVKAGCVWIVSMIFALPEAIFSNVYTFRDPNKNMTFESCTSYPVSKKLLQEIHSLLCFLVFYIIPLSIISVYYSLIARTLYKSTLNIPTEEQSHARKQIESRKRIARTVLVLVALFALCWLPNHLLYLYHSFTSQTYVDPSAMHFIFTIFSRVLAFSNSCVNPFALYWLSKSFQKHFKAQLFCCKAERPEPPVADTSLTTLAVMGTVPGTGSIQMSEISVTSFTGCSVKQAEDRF
# [2] = target: T2, BRS-3 (bombesin receptor subtype-3, BB3), murine (Mus musculus, UniProt O54798); test: inhibition of […] MK-5046-induced Ca2+ mobilization (FLIPR) in HEK293-mBRS-3 stable cells; also DMR (IC50 […])
# T2 construct: gene Brs3
# T2 sequence (O54798 1-399): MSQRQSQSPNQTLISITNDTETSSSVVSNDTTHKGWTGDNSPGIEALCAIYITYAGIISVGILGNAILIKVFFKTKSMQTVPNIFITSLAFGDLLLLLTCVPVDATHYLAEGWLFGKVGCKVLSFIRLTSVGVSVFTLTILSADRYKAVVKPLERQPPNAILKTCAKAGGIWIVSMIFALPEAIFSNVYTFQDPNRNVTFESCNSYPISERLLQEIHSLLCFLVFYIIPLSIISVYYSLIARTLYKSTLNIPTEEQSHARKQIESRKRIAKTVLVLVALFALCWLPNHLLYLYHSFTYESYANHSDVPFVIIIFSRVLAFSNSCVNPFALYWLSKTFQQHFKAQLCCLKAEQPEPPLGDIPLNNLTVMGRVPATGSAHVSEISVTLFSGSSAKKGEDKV
# [3] = target: T2, BRS-3 (bombesin receptor subtype-3, BB3), murine; test: reference peptide antagonist; inhibition of […] MK-5046-induced Ca2+ mobilization (FLIPR) in HEK293-mBRS-3 stable cells
IC50 [1],IC50 [2],Molecule,IC50 [3]
841 nM,706 nM,"CC(C)=CCc1c(O)ccc(-c2coc3cc(O)cc(O)c3c2=O)c1O [LIA, licoisoflavone A]",–
–,–,Bantag-1,2.32 nM
